Measurements: patent US12552797B2, “Process for making (3-[cyclopropylethoxy(difluoro)methyl]-6-6[5-fluoro-6-(2,2,2-trifluoroethoxy-3-pyridyl]- [1,2,4]triazolo[4,3-a]pyrazine” (Praxis Precision Medicines, Inc., priority 2019, dated 2026)
Converted amounts (≈) assume the structure as drawn. Read-outs that look alike come from different tables or passages of the source.

Legend:
[1] = Solubility of Compound 1 in solution formulation vehicles (visual); format: physicochemical; conditions: for solubility: organic solvent or mixture, thermodynamic from solid, read-out: maximum solubility (visually determined)
Method: 2400 μL PEG 400 was added to a 8 mL glass vial together with 3 mg of Compound 1 and mixed together by Vortex and sonicated for 5 min. Then 600 μL Cremophor RH40 was added to the container, mixed together by Vortex and sonicated for 5 min. Then 3000 μL water was added to the container, mixed together by Vortex and sonicated for 5 min.
About 15 mg compound were weighted to a 8 mL glass container and then 2 mL Prototype 2a was added to the glass container. The contents were mixed together by vortexing and sonication for 5 min.
About 15 mg compound was weighed to an 8 mL glass containers and then 2 mL of Prototype 2b was added to the container and mixed together by vortex and sonicated for 5 min. […] in Prototype 2b with 7.5 mg/mL was not clear. Then another 140 μL of Prototype 2b vehicle was added to the container and mixed together by vortex and sonicated for 5 min.
600 μL PEG 400 was added to a 4 mL glass vial together with 3 mg of Compound 1 and mixed together by Vortex and sonicated for 5 min. Then 150 μL Cremophor RH40 was added to the container and mixed together by Vortex and sonicated for 5 min. Then 750 μL water was added to the container and mixed together by vortexing and sonicated for 5 min.
Cremophor RH40, Capmul MCM Co, Triethylcitrate and Ethanol were added together on a weight basis to a glass container and mixed together to form a solution mixture. […] Additional Compound 1 was added with vortexing and sonication until Compound 1 was no longer soluble. The resulting maximum solubility was visually determined to be between 25 and 50 mg/mL.
Capryol 90, Labrasol and Transcutol HP were added together on a volumetric basis to a glass container and mixed together to form a solution mixture. […] Additional Compound 1 was added with vortexing and sonication until Compound 1 was no longer soluble. The resulting maximum solubility was visually determined to be between 60 and 80 mg/mL.

[2] = Stability of suspension formulations in methylcellulose/Poloxamer 188 vehicles (appearance, concentration, purity, PSD); format: physicochemical; parameters: key: *: homogeneous suspension initially, sedimentation occurred over time and returned to homogeneous after gentle agitation; #: viscous homogeneous suspension initially, sedimentation occurred over time and returned to homogeneous after gentle agitation
Method: As shown in Tables 9-11, various suspension formulations were tested for stability under different conditions.
To prepare a suspension weigh required amount of milled Compound 1 into a glass container and add corresponding volume of the vehicle. Thoroughly disperse the compound into a homogenous suspension using an overhead mixer at the final concentration target. Concentrations were prepared at 0.1 mg/mL and at 10 mg/mL. The suspension products were physically evaluated on visual appearance, concentration, purity and PSD.
The vehicles are prepared by dissolving 0.5% by weight of either 400 cP methylcellulose or 4000 cP methylcellulose and 0.2% Poloxamer 188. For the preserved suspensions, additionally 1.0% by volume of paraben preservative solution was dissolved into vehicle using an overhead mixer. The paraben preservative solution was prepared by dissolving 0.10 g methyl paraben, 0.025 g propylparaben in 9.875 g propylene glycol dissolved by mixing with a stir bar at room temperature for 1 hour.

## CCOC(F)(F)c1nnc2cnc(-c3cnc(OCC(F)(F)F)c(F)c3)cn12 [Compound 1, 3-(ethoxydifluoromethyl)-6-(5-fluoro-6-(2,2,2-trifluoroethoxy)pyridin-3-yl)-[1,2,4]triazolo[4,3-a]pyrazine]
[1]; Prototype 1: 40% PEG 400/10% Cremophor RH40/50% Water, 0.5 mg/mL
  dissolution in vehicle (visual): dissolved completely
[1]; Prototype 2a vehicle, 7.5 mg/mL
  dissolution in vehicle (visual): clear solution
[1]; Prototype 2b vehicle, 7.5 mg/mL
  dissolution in vehicle (visual): not clear
[1]; Prototype 3, 2 mg/mL
  dissolution in vehicle (visual): dissolved completely
[1]; Prototype 4 solution formulation vehicle, Prototype 4: 36% Cremophor RH40+45% Capmul MCM C8+9% Triethylcitrate+10% Ethanol
  solubility: 25 to 50 mg/mL (≈ 61.4 to 123 mM)
[1]; Prototype 5 solution formulation vehicle, Prototype 5: 40 Capryol 90+20% Labrasol+40% Transcutol HP
  solubility: 60 to 80 mg/mL (≈ 147 to 196 mM)
[2]; 0.5% 400 cP MC, 0.2% Poloxamer 188, 0.1 mg/mL, 1 h at RT
  Visual Appearance: *
[2]; 0.5% 400 cP MC, 0.2% Poloxamer 188, 0.1 mg/mL, 4 h at RT
  Visual Appearance: *
[2]; 0.5% 400 cP MC, 0.2% Poloxamer 188, 0.1 mg/mL, 24 h at RT
  Visual Appearance: *
[2]; 0.5% 400 cP MC, 0.2% Poloxamer 188, 10 mg/mL, 1 h at RT
  Visual Appearance: *
[2]; 0.5% 400 cP MC, 0.2% Poloxamer 188, 10 mg/mL, 4 h at RT
  Visual Appearance: *
[2]; 0.5% 400 cP MC, 0.2% Poloxamer 188, 10 mg/mL, 24 h at RT
  Visual Appearance: *
[2]; 0.5% 400 cP MC, 0.2% Poloxamer 188 and 1.0% of paraben preservative solution, 0.1 mg/mL, 1 h at RT
  Visual Appearance: *
[2]; 0.5% 400 cP MC, 0.2% Poloxamer 188 and 1.0% of paraben preservative solution, 0.1 mg/mL, 4 h at RT
  Visual Appearance: *
[2]; 0.5% 400 cP MC, 0.2% Poloxamer 188 and 1.0% of paraben preservative solution, 0.1 mg/mL, 24 h at RT
  Visual Appearance: *
[2]; 0.5% 400 cP MC, 0.2% Poloxamer 188 and 1.0% of paraben preservative solution, 10 mg/mL, 1 h at RT
  Visual Appearance: *
[2]; 0.5% 400 cP MC, 0.2% Poloxamer 188 and 1.0% of paraben preservative solution, 10 mg/mL, 4 h at RT
  Visual Appearance: *
[2]; 0.5% 400 cP MC, 0.2% Poloxamer 188 and 1.0% of paraben preservative solution, 10 mg/mL, 24 h at RT
  Visual Appearance: *
[2]; 0.5% 4000 cP MC, 0.2% Poloxamer 188, 0.1 mg/mL, 1 h at RT
  Visual Appearance: #
[2]; 0.5% 4000 cP MC, 0.2% Poloxamer 188, 0.1 mg/mL, 4 h at RT
  Visual Appearance: #
[2]; 0.5% 4000 cP MC, 0.2% Poloxamer 188, 0.1 mg/mL, 24 h at RT
  Visual Appearance: #
[2]; 0.5% 4000 cP MC, 0.2% Poloxamer 188, 10 mg/mL, 1 h at RT
  Visual Appearance: #
[2]; 0.5% 4000 cP MC, 0.2% Poloxamer 188, 10 mg/mL, 4 h at RT
  Visual Appearance: #
[2]; 0.5% 4000 cP MC, 0.2% Poloxamer 188, 10 mg/mL, 24 h at RT
  Visual Appearance: #
[2]; 0.5% 4000 cP MC, 0.2% Poloxamer 188 and 1.0% of paraben preservative solution, 0.1 mg/mL, 1 h at RT
  Visual Appearance: #
[2]; 0.5% 4000 cP MC, 0.2% Poloxamer 188 and 1.0% of paraben preservative solution, 0.1 mg/mL, 4 h at RT
  Visual Appearance: #
[2]; 0.5% 4000 cP MC, 0.2% Poloxamer 188 and 1.0% of paraben preservative solution, 0.1 mg/mL, 24 h at RT
  Visual Appearance: #
[2]; 0.5% 4000 cP MC, 0.2% Poloxamer 188 and 1.0% of paraben preservative solution, 10 mg/mL, 1 h at RT
  Visual Appearance: #
[2]; 0.5% 4000 cP MC, 0.2% Poloxamer 188 and 1.0% of paraben preservative solution, 10 mg/mL, 4 h at RT
  Visual Appearance: #
[2]; 0.5% 4000 cP MC, 0.2% Poloxamer 188 and 1.0% of paraben preservative solution, 10 mg/mL, 24 h at RT
  Visual Appearance: #
